These results are taken from ChEMBL document CHEMBL1152779, “Synthesis and applications of polyamine amino acid residues: improving the bioactivity of an analgesic neuropeptide, neurotensin” (J Med Chem, 2009).

The source made the active and inactive calls. No cut-off for these calls is given here. Numbered stars: 1 amine (or outer) side, 2 acyl side, 3 side chain; on linkers, the order of the positions; unused ones are H or OH. Square brackets hold non-standard residues; d marks the D form. Peptide text beside a SMILES is read from it. X1 = NCCCNCCCCNCCCNCCCNCCCC[C@H](N[*:1])C(=O)[*:2]; X2 = O=C([C@H](Cc1cccc2cc[nH]c12)N[*:1])[*:2]; NMeR = CN[C@@H](CCCNC(=N)N)C(=O)O; Tle = CC(C)(C)[C@H](N)C(=O)O

In experiment [1] the test system is Mus musculus. The experiment can be described thus: Analgesic activity against formalin-induced paw pain in mouse assessed as elimination of inflammatory phase at 4 mg/kg, ip 1 hr before formalin challenge. The experiment is classed as functional, organism-based. Also noted: dose 4 mg/kg.
Experiment [2] has as its system Mus musculus. The experiment is described as follows: Analgesic activity against formalin-induced paw pain in mouse assessed as effect on duration of paw licking at 4 mg/kg, ip 1 hr before formalin challenge. Also noted: dose 4 mg/kg. The experiment is classed as functional, organism-based.
The target of experiment [3] is Neurotensin receptor type 1 (Homo sapiens, UniProt P30989). The experiment is described as follows: Binding affinity to human recombinant NTS1 in HEK293T cells by competitive binding assay. The experiment is classed as cell-based, HEK-293T.
Sequence of Neurotensin receptor type 1 (P30989 whole entry): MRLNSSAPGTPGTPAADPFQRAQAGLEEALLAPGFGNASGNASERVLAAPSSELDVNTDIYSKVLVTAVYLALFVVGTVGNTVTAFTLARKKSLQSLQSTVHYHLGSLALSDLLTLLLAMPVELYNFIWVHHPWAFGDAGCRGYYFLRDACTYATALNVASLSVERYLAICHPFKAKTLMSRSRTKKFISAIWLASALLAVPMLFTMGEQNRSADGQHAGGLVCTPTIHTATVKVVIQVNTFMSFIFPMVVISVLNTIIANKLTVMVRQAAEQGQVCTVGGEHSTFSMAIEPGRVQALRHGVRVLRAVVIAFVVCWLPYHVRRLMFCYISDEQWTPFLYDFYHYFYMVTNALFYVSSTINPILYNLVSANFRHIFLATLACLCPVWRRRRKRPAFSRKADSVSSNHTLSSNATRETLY

`CC[C@H](C)[C@H](NC(=O)[C@H](Cc1ccc(O)cc1)NC(=O)[C@@H]1CCCN1C(=O)[C@H](CCCCN)NC(=O)[C@H](CCCCN)NC(=O)[C@H](CCCCNCCCNCCCNCCCCNCCCN)NC(C)=O)C(=O)N[C@@H](CC(C)C)C(=O)O` (Ac-[X1]KKPYIL-OH): the result in experiment [1] and in experiment [2] was Active.

By Kd is commonly meant the constant that tells how readily two partners part at equilibrium. In the case of `CN[C@@H](CCCN=C(N)N)C(=O)N[C@@H](CCCCN)C(=O)N1CCC[C@H]1C(=O)N[C@@H](Cc1cccc2cc[nH]c12)C(=O)N[C@H](C(=O)N[C@@H](CC(C)C)C(=O)O)C(C)(C)C` (H-[NMeR]KP[X2][Tle]L-OH), in experiment [3], the Kd stood at 1.55 nM.

As to `CC[C@H](C)[C@@H]1NC(=O)[C@H](Cc2ccc(O)cc2)NC(=O)[C@@H]2CCCN2C(=O)[C@H](CCCCN)NC(=O)[C@H](CCCCN)NC(=O)[C@H](CC(C)C)NC(=O)[C@H]([C@@H](C)CC)NC(=O)[C@H](Cc2ccc(O)cc2)NC(=O)[C@@H]2CCCN2C(=O)[C@H](CCCCN)NC(=O)[C@H](CCCCN)NC(=O)[C@H](CC(C)C)NC1=O` (cyclo(ILKKPYILKKPY)), the Kd in experiment [3] stood at 150 nM.
